The record followed here is PubChem BioAssay (NCI).

Common to all, as to assay: NCI-60 cell line screen, 48 h
For test [1], the system named is ACHN renal.
Test [2] relates to DU-145 prostate.
Test [3] deals with NCI-H522 lung.
Test [4] concerns OVCAR-8 ovarian.
Test [5] relates to SN12C renal.
Test [6] concerns SNB-19 CNS.
The subject of test [7] is SNB-75 CNS.
Test [8] concerns UO-31 renal.

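All cell lines were grown in 96-well plates and treated with compound for 48 hours. At the GI50, growth is halved. TGI: concentration producing complete growth inhibition.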

For the compound `N=C1N=Nc2nc(C3(c4nc5n(c4O)C(=N)N=N5)Cc4ccccc4C3=O)c(O)n21` (stereo not given), the TGI in test [1], in test [2], in test [3], in test [4], in test [5] and in test [6] was over 100 µM in each case. In addition, the TGI in test [7] and in test [8] was over 100 µM each time. Besides, the GI50 in test [3] is 87.5 µM.
With `COc1ccc(/C=C/C(=O)c2ccc(NC(=O)CSc3nnc(-c4cc(OC)c(OC)c(OC)c4)o3)cc2)cc1`, the GI50 was 1.72 µM in test [1]; 1.75 µM in test [2]; 1.55 µM in test [3]; 2.32 µM in test [4]; 1.83 µM in test [5]; 1.78 µM in test [6]. Besides, the GI50 in test [7] is 1.47 µM; in test [8], 1.46 µM. For the same compound, the TGI in test [1] is 3.22 µM; in test [2] it was 3.21 µM; in test [3] it was 3.22 µM; in test [4] it was 5.73 µM; in test [5] it was 3.57 µM; in test [6], 3.56 µM. In addition, the TGI is 3.15 µM in test [7] and 2.97 µM in test [8].
Take `COc1ccc2oc(-c3ccc(Cl)cc3)c(N3CCN(C)CC3)c2c1`: the GI50 is 1.73 µM in test [1]; 1.88 µM in test [2]; 1.9 µM in test [3]; 1.9 µM in test [4]; 2.52 µM in test [5]; 1.97 µM in test [6]. For the same compound, the GI50 in test [7] was 1.48 µM; in test [8], 1.05 µM. Besides, the TGI in test [1] was 3.7 µM; in test [2], 3.98 µM; in test [3], 3.91 µM; in test [4], 3.94 µM; in test [5] it was 10.2 µM; in test [6] it was 5.18 µM. Further, the results for the TGI in test [7] and in test [8] were 4.01 µM and 2.71 µM, respectively.
Take `C[C@H]1[C@H](C)CC[C@]2(C(=O)O)CC[C@]3(C)C(=CC[C@@H]4[C@@]5(C)CC[C@H](OC(=O)/C=C\c6ccc(O)cc6)C(C)(C)[C@@H]5CC[C@]43C)[C@H]12`: the GI50 was 2.89 µM in test [1]; 4.07 µM in test [2]; 5.58 µM in test [3]; 2.6 µM in test [4]; 1.67 µM in test [5]; 10.5 µM in test [6]. The GI50 is 22.3 µM in test [7] and 13.6 µM in test [8]. Moreover, the TGI is 12.1 µM in test [1]; 17.6 µM in test [2]; over 100 µM in test [3]; 9.1 µM in test [4]; 6.76 µM in test [5]; 31.1 µM in test [6]. In addition, the figures for the TGI in test [7] and in test [8] were 45.9 µM and over 100 µM, respectively.
Turning to `Cn1cc(C2=C(c3cccc(NCC(O)CO)c3)C(=O)NC2=O)c2cc(Cl)ccc21` (stereo not given), the GI50 is 3.53 µM in test [1]; 5.58 µM in test [2]; 2.45 µM in test [3]; 5.08 µM in test [4]; 4.62 µM in test [5]; 7.28 µM in test [6]. For the same compound, the GI50 in test [7] is 3.45 µM; in test [8], 5.99 µM. Besides, the TGI in test [1] was over 19.6 µM; in test [2] it was over 19.3 µM; in test [3] it was 11.4 µM; in test [4], 17.4 µM; in test [5], 16.5 µM; in test [6], 19.6 µM. The TGI came out at 9.55 µM in test [7] and 17.6 µM in test [8].
Consider `COc1ccc(/C=C2\CCCC3=C2N=C2SC=NN2C3c2ccc(OC)c(OC)c2)cc1OC` (stereo not given), for which the GI50 in test [1] is 7.71 µM; in test [2], 23 µM; in test [3], 17.9 µM; in test [4], 5.51 µM; in test [5], 18.2 µM; in test [6] it was 32.9 µM. The GI50 in test [7] is 9.38 µM; in test [8] it was 15.3 µM. For the same compound, the TGI in test [1], in test [2], in test [3], in test [4], in test [5] and in test [6] was over 100 µM throughout. The TGI in test [7] is 44.1 µM; in test [8], over 100 µM.
In the case of `Nc1nn(C(=O)Nc2ccc(Cc3ccccc3)cc2)c2ccccc12`, the GI50 in test [1] is 1.69 µM; in test [2] it was 1.02 µM; in test [3], 2.9 µM; in test [4] it was 21.9 µM; in test [5], 12.9 µM; in test [6], 22.8 µM. In addition, the results for the GI50 in test [7] and in test [8] were 17 µM and 0.347 µM, respectively. Further, the TGI in test [1] was 33.4 µM; in test [2], 28.3 µM; in test [3], over 100 µM; in test [4], 63.9 µM; in test [5], 28 µM; in test [6] it was over 100 µM. Further, the TGI in test [7] was 47.4 µM; in test [8], over 100 µM.
